This passage reports solubility results from patent publication US20030212102A1, “Novel solid dispersion compositions” (priority 2002, published 2003).

The nature of the series: Solubility and dissolution in simulated gastric fluid, USP Apparatus 2, non-sink conditions. Type of series: physicochemical. The settings on record: simulated gastric fluid without enzymes, 37 °C, thermodynamic from solid; simulated gastric fluid without enzyme, pH 1.2; read-out: in vitro solubility. As for the experimental part:
Physical matrix mixtures and melted carriers were made and tested to compare the baseline solubility and background absorbance to that of the solid dispersions. The resultant solid dispersion were yellow-orange hard solids with some air pockets formed by the cooling process. The dispersion solubility and dissolution rate were analyzed by USP Apparatus 2 dissolution. The dissolution was performed under the following conditions: SGF dissolution media, 0.1 M HCL without enzymes pH 1.2; non-sink conditions of 350-370 mL media; paddle speed of 50 rpm; temperature of 37° C.; 10 mL sample pull not replaced. Analysis of the (S)-(−)-N-(α-Ethylbenzyl)-3-hydroxy-2-phenylquinoline-4-carboxamide was performed using a UV spectrophotometer at 359 nm compared to standard solutions.

Values after ≈ are worked out from the molar mass of the structure shown.

The solubility is the dissolved amount per volume that the medium holds. Consider `CC[C@H](NC(=O)c1c(O)c(-c2ccccc2)nc2ccccc12)c1ccccc1` [(S)-(−)-N-(α-Ethylbenzyl)-3-hydroxy-2-phenylquinoline-4-carboxamide], for which the solubility was 31 µg/mL (≈ 81.1 µM).
